Source: PubChem BioAssay (NCI)
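Cultured in 96-well plates, cells were exposed to test compound for 48 hours across five concentrations. TGI: concentration producing complete growth inhibition.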

Assays:
Test in all cases: inhibition of tumour cell growth, NCI panel, 48 h
[1] = tested on: 786-0 renal
[2] = tested on: A498 renal
[3] = tested on: A549 NSCLC
[4] = tested on: ACHN renal
[5] = tested on: BT-549 breast
[6] = tested on: CAKI-1 renal
[7] = tested on: CCRF-CEM leukemia
[8] = tested on: COLO 205 colon
[9] = tested on: DU-145 prostate
[10] = tested on: EKVX NSCLC
[11] = tested on: HCC-2998 colon
[12] = tested on: HCT-116 colon
[13] = tested on: HCT-15 colon
[14] = tested on: HL-60(TB) leukemia
[15] = tested on: HOP-62 NSCLC
[16] = tested on: HOP-92 NSCLC
[17] = tested on: HS 578T breast
[18] = tested on: HT29 colon
[19] = tested on: IGROV1 ovarian
[20] = tested on: K-562 leukemia
[21] = tested on: KM12 colon
[22] = tested on: LOX IMVI melanoma
[23] = tested on: M14 melanoma
[24] = tested on: MALME-3M melanoma
[25] = tested on: MCF7 breast
[26] = tested on: MDA-MB-231 breast
[27] = tested on: MDA-MB-435
[28] = tested on: MDA-N
[29] = tested on: MOLT-4 leukemia
[30] = tested on: NCI-H226 lung
[31] = tested on: NCI-H23 lung
[32] = tested on: NCI-H460 lung
[33] = tested on: NCI-H522 lung
[34] = tested on: NCI/ADR-RES ovarian
[35] = tested on: OVCAR-3 ovarian
[36] = tested on: OVCAR-4 ovarian
[37] = tested on: OVCAR-5 ovarian
[38] = tested on: OVCAR-8 ovarian
[39] = tested on: PC-3 prostate
[40] = tested on: RPMI-8226 leukemia
[41] = tested on: RXF 393 renal
[42] = tested on: SF-268 CNS
[43] = tested on: SF-295 CNS
[44] = tested on: SF-539 CNS
[45] = tested on: SK-MEL-2 melanoma
[46] = tested on: SK-MEL-28 melanoma
[47] = tested on: SK-OV-3 ovarian
[48] = tested on: SN12C renal
[49] = tested on: SNB-19 CNS
[50] = tested on: SNB-75 CNS
[51] = tested on: SR leukemia
[52] = tested on: SW-620 colon
[53] = tested on: T-47D breast
[54] = tested on: TK-10 renal
[55] = tested on: U251 CNS
[56] = tested on: UACC-257 melanoma
[57] = tested on: UACC-62 melanoma
[58] = tested on: UO-31 renal
[59] = tested on: SK-MEL-5 melanoma

CC(=O)Nc1ccc(S(=O)(=O)N=S(C)C)cc1
TGI [1]: > 100 µM
TGI [2]: > 100 µM
TGI [3]: > 100 µM
TGI [4]: > 100 µM
TGI [5]: > 100 µM
TGI [6]: > 100 µM
TGI [7]: > 100 µM
TGI [8]: > 100 µM
TGI [9]: > 100 µM
TGI [10]: > 100 µM
TGI [11]: > 100 µM
TGI [12]: > 100 µM
TGI [13]: > 100 µM
TGI [14]: > 100 µM
TGI [15]: > 100 µM
TGI [16]: > 100 µM
TGI [17]: > 100 µM
TGI [18]: > 100 µM
TGI [19]: > 100 µM
TGI [20]: > 100 µM
TGI [21]: > 100 µM
TGI [22]: > 100 µM
TGI [23]: > 100 µM
TGI [24]: > 100 µM
TGI [25]: > 100 µM
TGI [26]: > 100 µM
TGI [27]: > 100 µM
TGI [28]: > 100 µM
TGI [29]: > 100 µM
TGI [30]: > 100 µM
TGI [31]: > 100 µM
TGI [32]: > 100 µM
TGI [33]: > 100 µM
TGI [34]: > 100 µM
TGI [35]: > 100 µM
TGI [36]: > 100 µM
TGI [37]: > 100 µM
TGI [38]: > 100 µM
TGI [39]: > 100 µM
TGI [40]: > 100 µM
TGI [41]: > 100 µM
TGI [42]: > 100 µM
TGI [43]: > 100 µM
TGI [44]: > 100 µM
TGI [45]: > 100 µM
TGI [46]: > 100 µM
TGI [47]: > 100 µM
TGI [48]: > 100 µM
TGI [49]: > 100 µM
TGI [50]: > 100 µM
TGI [51]: > 100 µM
TGI [52]: > 100 µM
TGI [53]: > 100 µM
TGI [54]: > 100 µM
TGI [55]: > 100 µM
TGI [56]: > 100 µM
TGI [57]: > 100 µM
TGI [58]: > 100 µM

O=[N+]([O-])c1ccc2sc(/C=N/c3ccccn3)cc2c1
TGI [1]: > 100 µM
TGI [2]: > 100 µM
TGI [3]: > 100 µM
TGI [4]: > 100 µM
TGI [5]: > 100 µM
TGI [6]: > 100 µM
TGI [7]: > 100 µM
TGI [8]: > 100 µM
TGI [9]: > 100 µM
TGI [10]: > 100 µM
TGI [11]: > 100 µM
TGI [12]: > 100 µM
TGI [13]: > 100 µM
TGI [14]: > 100 µM
TGI [15]: > 100 µM
TGI [16]: > 100 µM
TGI [17]: > 100 µM
TGI [18]: > 100 µM
TGI [19]: > 100 µM
TGI [20]: 96.6 µM
TGI [21]: > 100 µM
TGI [22]: > 100 µM
TGI [23]: > 100 µM
TGI [24]: > 100 µM
TGI [25]: > 100 µM
TGI [26]: > 100 µM
TGI [27]: > 100 µM
TGI [28]: > 100 µM
TGI [29]: 53.5 µM
TGI [31]: > 100 µM
TGI [32]: > 100 µM
TGI [33]: > 100 µM
TGI [34]: > 100 µM
TGI [35]: > 100 µM
TGI [37]: > 100 µM
TGI [38]: > 100 µM
TGI [39]: > 100 µM
TGI [40]: 88.9 µM
TGI [41]: > 100 µM
TGI [42]: 94 µM
TGI [43]: > 100 µM
TGI [44]: > 100 µM
TGI [45]: > 100 µM
TGI [46]: > 100 µM
TGI [59]: > 100 µM
TGI [47]: > 100 µM
TGI [48]: > 100 µM
TGI [49]: > 100 µM
TGI [50]: > 100 µM
TGI [51]: 89.4 µM
TGI [52]: > 100 µM
TGI [53]: 74 µM
TGI [54]: > 100 µM
TGI [55]: > 100 µM
TGI [56]: > 100 µM
TGI [57]: > 100 µM
TGI [58]: > 100 µM

NC(Cc1c[nH]c2ccc([N+](=O)[O-])cc12)C(=O)O (stereo not given)
TGI [1]: > 100 µM
TGI [2]: > 100 µM
TGI [3]: > 100 µM
TGI [4]: > 100 µM
TGI [5]: > 100 µM
TGI [6]: > 100 µM
TGI [7]: > 100 µM
TGI [8]: > 100 µM
TGI [9]: > 100 µM
TGI [10]: > 100 µM
TGI [12]: > 100 µM
TGI [13]: > 100 µM
TGI [14]: > 100 µM
TGI [15]: > 100 µM
TGI [17]: > 100 µM
TGI [18]: > 100 µM
TGI [19]: > 100 µM
TGI [20]: > 100 µM
TGI [21]: > 100 µM
TGI [22]: > 100 µM
TGI [23]: > 100 µM
TGI [24]: > 100 µM
TGI [25]: > 100 µM
TGI [26]: > 100 µM
TGI [27]: > 100 µM
TGI [28]: > 100 µM
TGI [29]: > 100 µM
TGI [30]: > 100 µM
TGI [31]: > 100 µM
TGI [33]: > 100 µM
TGI [34]: > 100 µM
TGI [35]: > 100 µM
TGI [36]: > 100 µM
TGI [37]: > 100 µM
TGI [38]: > 100 µM
TGI [39]: > 100 µM
TGI [40]: > 100 µM
TGI [41]: > 100 µM
TGI [42]: > 100 µM
TGI [43]: > 100 µM
TGI [45]: > 100 µM
TGI [46]: > 100 µM
TGI [59]: > 100 µM
TGI [47]: > 100 µM
TGI [48]: > 100 µM
TGI [49]: > 100 µM
TGI [50]: > 100 µM
TGI [51]: > 100 µM
TGI [52]: > 100 µM
TGI [53]: > 100 µM
TGI [54]: > 100 µM
TGI [55]: > 100 µM
TGI [56]: > 100 µM
TGI [57]: > 100 µM
TGI [58]: > 100 µM
